In ChEMBL document CHEMBL4406892 (Bioorg Med Chem Lett, 2019):
Active and inactive are the calls of the source. The calls are words filed in the database; no cut-off is given here.

Columns and labels:
[1] = molecular target: Urokinase-type plasminogen activator (Homo sapiens, UniProt P00749)
Description: Inhibition of human kidney uPA using fluorogenic Z-Pyr-Gly-Arg-MCA as substrate measured after 15 mins by fluorometric analysis

Rattus norvegicus [2] = assay: Diuretic activity in Sprague-Dawley rat model of acetazolamide-induced diuresis assessed as increase in sodium excretion at 1.5 mg/kg, ip pretreated with acetazolamide followed by compound treatment measured after 6 hrs; type: ADME, organism-based; details: in vivo
Rattus norvegicus [3] = assay: Antikaliuretic activity in Sprague-Dawley rat model of acetazolamide-induced diuresis assessed as decrease in potassium secretion at 1.5 mg/kg, ip pretreated with acetazolamide followed by compound treatment measured after 6 hrs; type: ADME, organism-based; details: in vivo
[4] = molecular target: Vitamin K-dependent protein C (Homo sapiens, UniProt P04070); assay: Inhibition of activated protein C (unknown origin) using chromogenic L-pyroGlu-L-Pro-L-Arg-p-nitroaniline as substrate
Plasma kallikrein = Plasma kallikrein (Homo sapiens, UniProt P03952)
Description: Inhibition of human plasma kallikrein using chromogenic L-pyroGlu-L-Pro-L-Arg-p-nitroaniline as substrate

HT-1080 = assay: Antimetastatic activity against luciferase-tagged human HT1080 cells xenografted in NSG mouse assessed as reduction in lung burden at 7.5 mg/kg/day, ip for 21 days by luciferase assay; type: functional, organism-based
Coagulation factor XI = Coagulation factor XI (Homo sapiens, UniProt P03951); assay: Inhibition of factor 11a (unknown origin) using chromogenic L-pyroGlu-L-Pro-L-Arg-p-nitroaniline as substrate
Plasminogen = Plasminogen (Homo sapiens, UniProt P00747); assay: Inhibition of plasmin (unknown origin) using chromogenic H-D-Ile-[…]-L-arginine-p-nitroaniline as substrate
[5] = molecular target: Tissue-type plasminogen activator (Homo sapiens, UniProt P00750)
Description: Inhibition of tissue-type plasminogen activator (unknown origin) using chromogenic H-D-Ile-L-propyl-L-arginine-p-nitroaniline as substrate

Prothrombin = Prothrombin (Homo sapiens, UniProt P00734); assay: Inhibition of thrombin (unknown origin) using chromogenic H-D-Ile-[…]-L-arginine-p-nitroaniline as substrate
Trypsin = Trypsin (Homo sapiens, UniProt P07477+P07478+P35030); assay: Inhibition of trypsin (unknown origin) using chromogenic H-D-Ile-[…]-L-arginine-p-nitroaniline as substrate; type: protein assay
Coagulation factor X = Coagulation factor X (Homo sapiens, UniProt P00742); assay: Inhibition of factor Xa (unknown origin)
Rattus norvegicus [6] = assay: Diuretic activity in Sprague-Dawley rat model of acetazolamide-induced diuresis assessed as increase in urine volume at 1.5 mg/kg, ip pretreated with acetazolamide followed by compound treatment measured after 6 hrs; type: ADME, organism-based; details: in vivo

Sequence of Plasma kallikrein (P03952 20-390 limits assumed): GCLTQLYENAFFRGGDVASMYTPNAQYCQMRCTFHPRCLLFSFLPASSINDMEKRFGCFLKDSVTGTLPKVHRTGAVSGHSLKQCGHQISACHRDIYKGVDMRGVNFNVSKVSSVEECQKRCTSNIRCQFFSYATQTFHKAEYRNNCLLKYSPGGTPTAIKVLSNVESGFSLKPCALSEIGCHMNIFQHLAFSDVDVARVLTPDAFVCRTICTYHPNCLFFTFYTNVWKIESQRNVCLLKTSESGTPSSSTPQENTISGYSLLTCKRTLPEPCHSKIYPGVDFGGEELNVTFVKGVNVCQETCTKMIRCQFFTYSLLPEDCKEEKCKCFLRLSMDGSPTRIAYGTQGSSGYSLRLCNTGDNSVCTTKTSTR
Sequence of Plasma kallikrein (P03952 391-638 limits assumed): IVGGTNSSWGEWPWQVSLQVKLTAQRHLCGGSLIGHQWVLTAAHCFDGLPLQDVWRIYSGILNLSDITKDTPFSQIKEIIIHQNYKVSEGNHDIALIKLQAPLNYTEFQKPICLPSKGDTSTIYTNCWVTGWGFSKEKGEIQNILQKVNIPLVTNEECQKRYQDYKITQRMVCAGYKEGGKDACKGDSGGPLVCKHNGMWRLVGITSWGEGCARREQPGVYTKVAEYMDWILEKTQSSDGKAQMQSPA
Sequence of Vitamin K-dependent protein C (P04070 43-197 limits assumed): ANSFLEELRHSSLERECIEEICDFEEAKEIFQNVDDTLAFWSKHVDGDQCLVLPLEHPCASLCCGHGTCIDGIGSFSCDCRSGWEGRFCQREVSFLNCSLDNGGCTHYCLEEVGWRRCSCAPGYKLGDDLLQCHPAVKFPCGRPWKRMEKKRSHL
Sequence of Vitamin K-dependent protein C (P04070 212-461 limits assumed): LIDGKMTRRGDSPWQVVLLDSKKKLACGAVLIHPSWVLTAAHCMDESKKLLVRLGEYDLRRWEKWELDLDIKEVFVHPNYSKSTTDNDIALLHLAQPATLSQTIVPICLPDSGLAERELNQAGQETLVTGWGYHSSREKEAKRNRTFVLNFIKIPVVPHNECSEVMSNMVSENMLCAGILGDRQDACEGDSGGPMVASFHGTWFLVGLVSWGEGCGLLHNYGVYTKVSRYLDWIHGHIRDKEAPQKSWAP
Sequence of Coagulation factor X (P00742 41-179 limits assumed): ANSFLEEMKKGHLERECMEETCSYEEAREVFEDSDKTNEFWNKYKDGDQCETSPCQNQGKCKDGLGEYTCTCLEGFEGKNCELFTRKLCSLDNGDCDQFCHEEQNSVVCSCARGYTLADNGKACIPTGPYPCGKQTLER
Sequence of Coagulation factor X (P00742 235-488 limits assumed): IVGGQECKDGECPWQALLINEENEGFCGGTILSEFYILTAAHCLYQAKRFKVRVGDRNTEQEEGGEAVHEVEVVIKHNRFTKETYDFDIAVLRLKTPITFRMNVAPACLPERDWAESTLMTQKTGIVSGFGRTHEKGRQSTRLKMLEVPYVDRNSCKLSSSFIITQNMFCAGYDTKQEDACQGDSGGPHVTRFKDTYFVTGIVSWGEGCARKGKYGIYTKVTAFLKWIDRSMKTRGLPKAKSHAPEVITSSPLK
Sequence of Coagulation factor XI (P03951 19-387 limits assumed): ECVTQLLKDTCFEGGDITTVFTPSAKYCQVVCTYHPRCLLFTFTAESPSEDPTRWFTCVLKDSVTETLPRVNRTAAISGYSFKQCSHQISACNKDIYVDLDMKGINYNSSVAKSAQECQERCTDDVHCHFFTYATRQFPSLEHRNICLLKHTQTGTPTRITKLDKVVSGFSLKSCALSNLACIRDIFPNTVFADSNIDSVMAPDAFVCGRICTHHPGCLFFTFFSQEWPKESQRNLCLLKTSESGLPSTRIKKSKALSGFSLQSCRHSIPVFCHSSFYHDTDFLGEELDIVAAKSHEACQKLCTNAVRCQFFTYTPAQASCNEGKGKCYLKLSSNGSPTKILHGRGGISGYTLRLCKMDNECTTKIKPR
Sequence of Coagulation factor XI (P03951 388-625 limits assumed): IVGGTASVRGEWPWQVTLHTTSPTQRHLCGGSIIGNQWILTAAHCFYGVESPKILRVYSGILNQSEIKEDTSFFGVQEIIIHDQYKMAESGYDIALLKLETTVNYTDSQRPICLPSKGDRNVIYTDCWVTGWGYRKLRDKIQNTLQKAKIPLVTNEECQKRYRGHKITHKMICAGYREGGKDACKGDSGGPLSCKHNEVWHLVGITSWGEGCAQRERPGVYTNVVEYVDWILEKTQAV
Sequence of Tissue-type plasminogen activator (P00750 whole entry): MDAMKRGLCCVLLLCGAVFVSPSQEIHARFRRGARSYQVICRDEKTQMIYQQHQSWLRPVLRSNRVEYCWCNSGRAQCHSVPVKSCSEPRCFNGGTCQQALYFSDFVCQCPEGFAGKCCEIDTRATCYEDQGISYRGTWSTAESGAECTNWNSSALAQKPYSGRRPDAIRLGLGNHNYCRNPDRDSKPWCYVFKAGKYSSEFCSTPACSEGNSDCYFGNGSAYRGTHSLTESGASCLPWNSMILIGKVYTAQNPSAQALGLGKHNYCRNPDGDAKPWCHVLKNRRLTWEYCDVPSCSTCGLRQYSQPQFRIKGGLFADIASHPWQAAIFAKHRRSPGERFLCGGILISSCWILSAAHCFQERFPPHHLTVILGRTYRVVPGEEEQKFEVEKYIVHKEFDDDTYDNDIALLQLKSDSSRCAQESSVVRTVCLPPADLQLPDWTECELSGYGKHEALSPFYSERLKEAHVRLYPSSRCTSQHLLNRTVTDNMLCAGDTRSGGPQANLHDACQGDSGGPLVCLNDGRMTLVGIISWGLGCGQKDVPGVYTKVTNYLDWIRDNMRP
Sequence of Plasminogen (P00747 97-580 limits assumed): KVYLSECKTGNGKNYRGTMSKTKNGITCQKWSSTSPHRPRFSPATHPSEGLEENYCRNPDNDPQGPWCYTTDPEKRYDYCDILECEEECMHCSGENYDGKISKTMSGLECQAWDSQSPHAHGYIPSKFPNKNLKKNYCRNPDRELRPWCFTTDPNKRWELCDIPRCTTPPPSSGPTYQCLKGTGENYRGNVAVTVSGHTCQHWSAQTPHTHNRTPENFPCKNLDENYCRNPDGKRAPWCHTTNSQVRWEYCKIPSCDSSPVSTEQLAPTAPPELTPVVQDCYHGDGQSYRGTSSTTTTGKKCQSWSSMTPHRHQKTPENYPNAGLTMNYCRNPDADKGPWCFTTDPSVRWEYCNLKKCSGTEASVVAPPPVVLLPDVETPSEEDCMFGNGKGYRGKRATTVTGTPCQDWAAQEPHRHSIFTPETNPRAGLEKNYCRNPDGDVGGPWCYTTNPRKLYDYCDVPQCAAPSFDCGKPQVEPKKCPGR
Sequence of Plasminogen (P00747 581-810 limits assumed): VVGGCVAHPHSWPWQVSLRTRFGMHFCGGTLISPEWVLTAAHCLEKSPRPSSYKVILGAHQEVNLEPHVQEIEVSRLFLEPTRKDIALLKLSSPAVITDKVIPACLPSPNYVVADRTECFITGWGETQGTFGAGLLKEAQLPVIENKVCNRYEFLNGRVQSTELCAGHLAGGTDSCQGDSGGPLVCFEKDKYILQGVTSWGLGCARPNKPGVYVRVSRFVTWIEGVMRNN

Question: Which Ki [1] does the source give for `COc1ncc(-c2nc(C(=O)NC(=N)N)c(N)nc2N)c(OC)n1` here?
Answer: 1630 nM

Question: How did the Ki [1] turn out when `N=C(N)NC(=O)c1nc(-c2cccs2)c(N)nc1N` was run?
Answer: 1260 nM

Question: Which Ki [1] does the source give for `COc1ccc2cc(-c3nc(C(=O)NC(=N)N)c(N)nc3N)oc2c1` here?
Answer: 439 nM

Question: For `Cc1ccc2oc(-c3nc(C(=O)NC(=N)N)c(N)nc3N)cc2c1`, which Ki [1] is on record?
Answer: 642 nM

Question: For `N=C(N)NC(=O)c1nc(-c2ccc(C(F)(F)F)cc2)c(N)nc1N`, which Ki [1] is on record?
Answer: 3140 nM

Question: `N=C(N)NC(=O)c1nc(-c2cc3ccccc3s2)c(N)nc1N` was tested. Which Ki [1] did it give?
Answer: 1410 nM

Question: Which Activity (Rattus norvegicus [2]) does the source give for `COc1ncc(-c2nc(C(=O)NC(=N)N)c(N)nc2N)cn1` here?
Answer: Non-Toxic

Question: What about the Ki [1] of the same compound?
Answer: 204 nM

Question: What about the Activity (Rattus norvegicus [3]) of the same compound?
Answer: Non-Toxic

Question: For `N=C(N)NC(=O)c1nc(-c2ccco2)c(N)nc1N`, which Ki [1] is on record?
Answer: 776 nM

Question: How did the Ki [1] turn out when `COc1ccc(-c2nc(C(=O)NC(=N)N)c(N)nc2N)c(OC)n1` was run?
Answer: 1210 nM

Question: With `N=C(N)NC(=O)c1nc(-c2ccoc2)c(N)nc1N` as the compound, how does the Ki [1] read?
Answer: 499 nM

Question: With `N=C(N)NC(=O)c1nc(-c2ccc3c(c2)CCO3)c(N)nc1N` as the compound, how does the Ki [1] read?
Answer: 1480 nM

Question: How did the Ki [1] turn out when `N=C(N)NC(=O)c1nc(-c2cc3cc(Br)ccc3o2)c(N)nc1N` was run?
Answer: 3650 nM

Question: With `N=C(N)NC(=O)c1nc(Cl)c(N)nc1N` [AMILORIDE] as the compound, how does the IC50 [4] read?
Answer: > 50 µM

Question: And the IC50 (Plasma kallikrein)?
Answer: > 50 µM

Question: And the inhibition (HT-1080)?
Answer: inactive

Question: And the IC50 (Coagulation factor XI)?
Answer: > 50 µM

Question: And the IC50 (Plasminogen)?
Answer: > 20 µM

Question: What about the IC50 [5] of the same compound?
Answer: > 20 µM

Question: What about the IC50 (Prothrombin) of the same compound?
Answer: > 20 µM

Question: What about the IC50 (Trypsin) of the same compound?
Answer: > 50 µM

Question: And the IC50 (Coagulation factor X)?
Answer: > 50 µM

Question: With `COc1ccc2oc(-c3nc(C(=O)NC(=N)N)c(N)nc3N)cc2c1` as the compound, how does the Ki [1] read?
Answer: 287 nM

Question: For `CSc1ccc(-c2nc(C(=O)NC(=N)N)c(N)nc2N)cc1`, which Ki [1] is on record?
Answer: 2410 nM

Question: For `N#Cc1ccc2oc(-c3nc(C(=O)NC(=N)N)c(N)nc3N)cc2c1`, which Ki [1] is on record?
Answer: 904 nM

Question: `N=C(N)NC(=O)c1nc(-c2ccccc2)c(N)nc1N` was tested. Which Ki [1] did it give?
Answer: 2500 nM

Question: How did the Ki [1] turn out when `N=C(N)NC(=O)c1nc(-c2cc3cc(F)ccc3o2)c(N)nc1N` was run?
Answer: 587 nM

Question: For `N=C(N)NC(=O)c1nc(-c2ccc3occc3c2)c(N)nc1N`, which Ki [1] is on record?
Answer: 350 nM

Question: How did the Ki [1] turn out when `Cn1cc(-c2nc(C(=O)NC(=N)N)c(N)nc2N)cn1` was run?
Answer: 482 nM

Question: `N=C(N)NC(=O)c1nc(-c2cc3cc(Cl)ccc3o2)c(N)nc1N` was tested. Which Ki [1] did it give?
Answer: 578 nM

Question: What does the source list for `N=C(N)NC(=O)c1nc(-c2cc3ccccc3o2)c(N)nc1N`?
Answer: Activity (Rattus norvegicus [6]): Non-Toxic; Activity (Rattus norvegicus [2]): Non-Toxic; IC50 (Trypsin): > 50 µM; Activity (Rattus norvegicus [3]): Non-Toxic
